Test: Encapsulation efficiency of liposomes and lipodisks by RP-HPLC
Conditions: for Change of EE in lipodisks compared with liposomes: curcumin D/L 0.01, acyclovir D/L 0.03; for EE% (encapsulation efficiency), D/L 0.1: D/L ratio 0.1 (w/w), N = 3

Row | SMILES | Change of EE in lipodisks compared with liposomes | EE% (encapsulation efficiency), D/L 0.1 ([…]) [%] | Encapsulation efficiency, lipodisks D/L 0.01 (D/L ratio 0.01) | Encapsulation efficiency, liposomes D/L 0.01 (liposomes, D/L ratio 0.01) | Encapsulation efficiency, liposomes D/L 0.03 ([…], D/L ratio 0.03, passive loading) [%] | Encapsulation efficiency, lipodisks D/L 0.03 (lipodisks (62% DSPE-PEG2000), D/L ratio 0.03) [%]
1 | Nc1nc2c(ncn2COCCO)c(=O)[nH]1 [Acyclovir, acyclovir] | did not significantly increase |  |  |  |  | 
2 | COc1cc(/C=C/C(=O)CC(=O)/C=C/c2ccc(O)c(OC)c2)ccc1O [Curcumin, curcumin] | remained constant | 11.41 | ~ 82.4% | ~ 82.4% |  | 
3 | C[C@@H]1C[C@H]2[C@@H]3CCC4=CC(=O)C=C[C@]4(C)[C@@]3(F)[C@@H](O)C[C@]2(C)[C@@]1(O)C(=O)CO [Dexamethasone, dexamethasone] |  | 1.49 | 27.46% |  | 2.3 | 9.7
